Experimental data published in the OligoGym collection.
Where “and” joins values, the source holds several entries; their conditions need not be identical. Identical values can stand only once. After the bases stand the sugars from the 5' end (letter, count) and the backbone: PS all phosphorothioate, else s phosphorothioate and o phosphodiester by linkage. Methylation of C is not given here. e = 2'-O-(2-methoxyethyl) (MOE); d = 2'-deoxy (DNA)

Biological target: DGAT2
Details: ASO

Row | Sequence | target mRNA inhibition (HepG2, 2.5 µM) | target mRNA inhibition (HepG2, 10 µM) | target mRNA inhibition (HepG2, 0.12 µM) [%]
1 | ACCCAACCTTTAAGGCCTAT (sugars e5 d10 e5, PS) | 69% and 59% and 70% | 93% and 91% and 95% | –
2 | ACCCCGGAGTAGGCGGCTAT (sugars e5 d10 e5, PS) | – | – | 46
3 | ACTCAAAAATATACATGCTC (sugars e5 d10 e5, PS) | 67% | 92% | –
4 | ACTTTTTCCTTCTTAAAAAA (sugars e5 d10 e5, PS) | – | – | 0
5 | AGACATCAGGTACTCCCTCA (sugars e5 d10 e5, PS) | – | – | 35
6 | AGAGGTTCAACATCCAATTT (sugars e5 d10 e5, PS) | 0% | 86% | –
7 | AGATGGACAGGTGATTCTAA (sugars e5 d10 e5, PS) | – | – | 50
8 | AGCACTGACATGGTAAGTCC (sugars e5 d10 e5, PS) | 75% and 68% | 93% and 91% | –
9 | AGCCAGGTAAGGCCGTATGC (sugars e5 d10 e5, PS) | – | – | 70
10 | AGCCCTCCTCGAAGATCACC (sugars e5 d10 e5, PS) | – | – | 39
11 | AGCCTGGATGGTGGTTGCAA (sugars e5 d10 e5, PS) | 73% | 78% | –
12 | AGCTCAGAGACTCAGCCGCA (sugars e2 d13 e5, PS) | – | – | 86
13 | AGCTCATGAGAAGCTTAGAA (sugars e5 d10 e5, PS) | 62% | 82% | –
14 | AGCTTCACCAGGGCCTCCAT (sugars e5 d10 e5, PS) | – | – | 42
15 | AGGAAGGAAATGCTAGGCCT (sugars e5 d10 e5, PS) | – | – | 64
16 | AGGCACCTGTTACTACATGT (sugars e5 d10 e5, PS) | 78% | 93% and 91% | –
17 | AGGCATGCTTCCTCCCACTT (sugars e5 d10 e5, PS) | 53% | 85% | –
18 | AGGCCACAGTGGCAACAGAG (sugars e5 d10 e5, PS) | – | – | 54

Row | Sequence | target mRNA inhibition (HepG2, 2.5 µM) | target mRNA inhibition (HepG2, 10 µM) | target mRNA inhibition (HepG2, 0.12 µM) [%]
19 | AGGGCACCAGCCCCCAGGTG (sugars e5 d10 e5, PS) | – | – | 29
20 | AGGTAAGGCCGTATGCCTGG (sugars e3 d14 e3, PS) | – | – | 67
21 | AGGTAAGGCCGTATGCCTGG (sugars e5 d10 e5, PS) | – | – | 72
22 | AGTAAGCCTCGGTGTCCTCT (sugars e5 d10 e5, PS) | 61% and 76% and 75% | 92% and 91% and 95% | –
23 | AGTAGTCTCGAAAGTAGCGC (sugars e5 d10 e5, PS) | – | – | 39
24 | AGTCACTGACTCACAACAGC (sugars e5 d10 e5, PS) | 45% | 83% | –
25 | AGTCTTCCTTCTCCTCCACC (sugars e5 d10 e5, PS) | 69% | 84% | –
26 | AGTGCTTTCTAAGTACCCTT (sugars e5 d10 e5, PS) | 91% and 88% | 90% and 94% | –
27 | AGTTTCACAAAGCCCTTGCG (sugars e5 d10 e5, PS) | – | – | 25
28 | ATACCTTATCTTTGTCCACA (sugars e5 d10 e5, PS) | 79% | 94% | –
29 | ATAGCATTGCCACTCCCATT (sugars e3 d14 e3, PS) | – | – | 71
30 | ATAGTTCCTGGTGGTCAGCA (sugars e5 d10 e5, PS) | – | – | 46
31 | ATCACAGAATTATCAGCAGT (sugars e5 d10 e5, PS) | 59% | 92% | –
32 | ATCACAGAGCTTGGTTCATC (sugars e5 d10 e5, PS) | 61% and 44% | 93% and 85% | –
33 | ATCACTTGCTTGAGGTCAGG (sugars e5 d10 e5, PS) | 70% | 90% | –
34 | ATCCAGAGACTGAATTCTAG (sugars e5 d10 e5, PS) | 61% | 88% | –
35 | ATCCATGTCATCAGCCACCC (sugars e5 d10 e5, PS) | 61% and 63% | 86% and 80% | –
36 | ATCCCAACTCTGCCATTTAA (sugars e5 d10 e5, PS) | 60% | 90% | –
